Where a SMILES comes first, the peptide text is derived from it. [ ]: non-standard residue; d: D form.
Legend:
[1] = Single-channel electrical recordings in planar lipid bilayers; assay type: biochemical; conditions: for mean unitary conductance (G): 10 mM HEPES, pH 7.4, DpPorA at +50 mV, n = 83 insertions, DpPorA DE n = 61 insertions; for experimental conductance Gexp: Supplementary Table 1
Method: High-resolution electrical recordings for the single-channel characterization were conducted in planar lipid bilayers made up of 1,2-diphytanoyl-sn-glycero-3-phosphocholine (DPhPC, Avanti Polar Lipids)[23],[27],[51]. The lipid bilayer is formed across a polytetrafluoroethylene (Teflon) aperture of ~100 µm in diameter. Teflon is placed between the two sides of the Delrin bilayer chamber, partitioning it into cis and trans compartments (600 µL each). For constructing a solvent-free lipid bilayer, the aperture is made lipophilic by pre-painting both sides with hexadecane in n-pentane (1 μL, 5 mg mL^−1)[51]. After ~10 min, the chambers were filled with buffered electrolytes (1 M KCl, 10 mM HEPES, pH 7.4), and DPhPC in n-pentane (1 μL, 5 mg mL^−1) was added. After ~15 min incubation, the lipid bilayer is formed by raising and lowering the electrolyte solution, bringing the two lipid monolayers together at the aperture. The cis compartment was connected to the ground electrode, while the trans compartment was connected to the working live electrode. Subsequently, DpPorA or DpPorA DE peptides solubilized in 0.1% DDM (1 µL, 100 µg mL^−1) were consistently introduced into the cis compartment of the bilayer. The peptide pore insertion was facilitated by mixing the bilayer chamber and applying a high voltage of +200 mV. The single-channel electrical properties of the peptide pores and analyte-induced pore blockages were examined in 1 M KCl, 10 mM HEPES, pH 7.4. Ion selectivity was assessed under asymmetric salt conditions with a KCl concentration gradient across the planar lipid bilayer (0.15 M cis/1 M trans) (SI text)[27]. The ion current was acquired and amplified using an Axopatch 200B amplifier, digitized with Digidata 1550B digitizer, and recorded using the pClamp 11 acquisition software (Molecular Devices, CA). The current signals were filtered with a 2 kHz low-pass filter frequency and 10 kHz sampling frequency, or with 10 kHz low-pass filter frequency and 50 kHz sampling frequency, in line with the requirement.

[2] = GUV-based molecular transport assay; assay type: biochemical; conditions: 100 mM KCl 10 mM HEPES pH 7.4, mean ± S.D., N = 4 batches
Method: The giant unilamellar vesicles (GUVs) were constructed using gel-assisted swelling methodology and labeled with 0.05 mol% ATTO 550 DOPE[27],[44],[61]. Thin lipid films were spread on polyvinyl alcohol (PVA) coated glass slides using 30 µL of a 1 mg/mL solution of DOPC (Cis and Ent lipids prepared separately). […] The successful formation of vesicles was verified in real time by phase-contrast microscopy. To study the transport across DpPorA and DpPorA DE pores, the peptides were added to GUVs (at a concentration of 10–15 µM in 0.1% DDM) along with the fluorescent hydrophilic molecules (namely Alexa Fluor 350 Hydrazide: M.W-349 Da, Alexa Fluor 555 Hydrazide: M.W-1150 Da, ATTO 488 Dextran: M.W-3000 Da)[62]. The uptake of fluorescent molecules was monitored over 40 min, with time-lapse imaging at every minute for the first 10 min and then at every 5 min for the following 30 min, tracking either single vesicles or multiple vesicles within the same field of view. Later on, individual vesicles were further scanned and imaged to obtain datasets for statistical analysis. Control experiments were conducted under identical conditions using vesicles prepared with the same detergent concentration but without peptide incorporation. At each time point, the vesicle images were blank-subtracted, and the intensity inside the vesicle ( Iin ) was normalized against the intensity outside ( Iout )[27]. Complete permeabilization of the vesicles was marked by Iin/Iout ≥ 0.98 for peptide-reconstituted vesicles, while Iin/Iout ≥ 0.95 was considered as the cut-off for permeabilization in the control vesicles.

MDA-MB-231 cells = assay: Cell membrane integrity by CellMask Deep Red staining; assay type: cell-based, human; conditions: 25 µM, 24 h
Method: MDA-MB-231 cells were seeded in a 24-well plate (Thermo Fisher Scientific, 142475) containing sterilized coverslips (Blue star, Microscopic cover glass circular 12 mm 10 gm) at a cell density of 3 × 10^4 cells per well. 24 h post-seeding, cells were treated with DpPorA DE peptide, 5-FAM-DpPorA DE peptide, or a corresponding concentration of DDM. After 24 h of treatment, cells were stained with CellMask Deep Red (Thermo Fisher Scientific, C10046; 1:4000 dilution in PBS) for 5 min at 37 °C. After membrane staining, the cells were washed with PBS and fixed in 2% PFA (Himedia, TCL119) for 5 min. After PBS wash, the coverslips were carefully removed from the wells and mounted with ProLong™ Gold Antifade Mountant (Invitrogen, P10144). The cells were immediately visualized within 60 min using the Carl Zeiss Axio Observer fluorescence microscope. Fluorescence was quantified by drawing the ROI around individual cells to measure the green channel intensity (5-FAM-DpPorA DE). Integrated Density was measured using ImageJ software for 50 cells per group. […]
g) Preparation of DDM and peptides for testing on cancer cells
Lyophilized DpPorA, LpPorA, DpPorA DE, LpPorA DE and 5-FAM-DpPorA DE were reconstituted in 0.1% DDM [1 µL of 100 µg mL-1 DDM (Sigma-Aldrich Merck, D5172) in PBS (Gibco - 14040)], resulting in a peptide concentration of 1.7 mM. Subsequent concentrations were diluted with DMEM, 10% FBS, and 1% Penicillin /Streptomycin-containing media. (Supplementary Table 2) h) Cell membrane integrity analysis and statistics
Immunofluorescence (IF) images were analyzed to assess the impact of different treatments on cell membrane integrity. Cells were categorized into Intact and Disrupted groups based on membrane integrity observed by CellMask cell membrane staining. We evaluated a t least 100 cells for each group - Control, DDM-treated cells and peptide-treated cells- with independent analysis done by a student blinded to the groups' identity . […]
indicating a loss of cell membrane integrity. This categorization provided a clear and systematic approach to quantify the effects of various treatments on cell membrane integrity.
For three independent experiments, data in bar graphs represent mean (± standard deviation) fold change relative to Control groups. Differences between the two datasets were assessed using Welch’s test. Statistical significance is indicated as: *p<0.05, **p<0.01, ***p<0.001,

[3] = DOPC (Cis-DOPC) GUVs, peptide 10 to 15 µM in 0.1% DDM

Row | SMILES | mean unitary conductance (G) ([1]; 1 M KCl) [nS] | experimental conductance Gexp [1] [nS] | percentage of permeabilization, ATTO 488 Dextran [2, 3] [%] | percentage of permeabilization, Alexa Fluor 350 [2, 3] [%] | percentage of permeabilization, Alexa Fluor 555 [2, 3] [%] | Cell number, Disrupted phenotype (MDA-MB-231 cells) | Cell number, Intact phenotype (MDA-MB-231 cells) | cells with Disrupted membrane phenotype (MDA-MB-231 cells; at least 100 cells) [%] | cells with Intact membrane phenotype (MDA-MB-231 cells; at least 100 cells) [%] | unitary conductance (G) of proteinase K treated peptides ([1]; 1 M KCl, after proteinase K treatment, n = 25) [nS] | pores with slightly higher current at negative than positive voltages ([1]; 1 M KCl, current rectification of n = 30 single channels) [%] | percentage of permeabilization, ATTO 488 Dextran ([2]; Ent-DOPC GUVs, 0.1% DDM) [%] | percentage of permeabilization, Alexa Fluor 350 ([2]; Ent-DOPC GUVs, 0.1% DDM) [%] | percentage of permeabilization, Alexa Fluor 555 ([2]; Ent-DOPC GUVs, 0.1% DDM) [%]
1 | CC[C@@H](C)[C@@H](NC(=O)[C@H](N)CCSC)C(=O)N[C@H](CC(=O)O)C(=O)N[C@H](CCC(N)=O)C(=O)N[C@@H](C(=O)N[C@@H](C(=O)N[C@H](CCC(=O)O)C(=O)N[C@@H](C(=O)N[C@H](Cc1ccccc1)C(=O)NCC(=O)N[C@H](CCC(N)=O)C(=O)N[C@H](CC(C)C)C(=O)NCC(=O)N[C@@H](C(=O)N[C@H](Cc1ccccc1)C(=O)N[C@H](CC(C)C)C(=O)NCC(=O)NCC(=O)N[C@H](Cc1ccccc1)C(=O)NCC(=O)N[C@H](CC(N)=O)C(=O)N[C@@H](C(=O)N[C@H](Cc1ccccc1)C(=O)N[C@H](CCCCN)C(=O)NCC(=O)N[C@H](CC(C)C)C(=O)N[C@H](CCCCN)C(=O)N[C@H](C)C(=O)N[C@@H](C(=O)N[C@@H](C(=O)N[C@H](C)C(=O)N[C@@H](C(=O)N[C@@H](C(=O)N[C@@H](C(=O)N[C@H](CCCCN)C(=O)N[C@H](Cc1c[nH]c2ccccc12)C(=O)N[C@@H](C(=O)N[C@H](C)C(=O)N[C@H](C)C(=O)N[C@H](CCCCN)C(=O)O)[C@H](C)O)C(C)C)[C@H](C)CC)[C@H](C)O)[C@H](C)CC)C(C)C)[C@H](C)CC)[C@H](C)O)[C@H](C)CC)[C@H](C)O)[C@H](C)CC [DpPorA DE] (H-[dM][dI][dD][dQ][dI][dT][dE][dI][dF]G[dQ][dL]G[dT][dF][dL]GG[dF]G[dN][dI][dF][dK]G[dL][dK][dA][dV][dI][dA][dT][dI][dV][dK][dW][dT][dA][dA][dK]-OH; N-terminus and C-terminus assumed) | 3.80 ± 0.2 | 3.8 ± 0.2 | 53.8 ± 8 | 89.2 ± 3.7 | 71.3 ± 3.5 | 158 | 1 | 99.37 | 0.63 |  |  |  |  | 
2 | CC[C@@H](C)[C@@H](NC(=O)[C@H](N)CCSC)C(=O)N[C@H](CC(=O)O)C(=O)N[C@H](CCC(N)=O)C(=O)N[C@@H](C(=O)N[C@@H](C(=O)N[C@H](CCC(=O)O)C(=O)N[C@@H](C(=O)N[C@H](Cc1ccccc1)C(=O)NCC(=O)N[C@H](CCC(N)=O)C(=O)N[C@H](CC(C)C)C(=O)NCC(=O)N[C@@H](C(=O)N[C@H](Cc1ccccc1)C(=O)N[C@H](CC(C)C)C(=O)NCC(=O)NCC(=O)N[C@H](Cc1ccccc1)C(=O)NCC(=O)N[C@H](CC(N)=O)C(=O)N[C@@H](C(=O)N[C@H](Cc1ccccc1)C(=O)N[C@H](CCCCN)C(=O)NCC(=O)N[C@H](CC(C)C)C(=O)N[C@H](CCCCN)C(=O)N[C@H](CC(=O)O)C(=O)N[C@@H](C(=O)N[C@@H](C(=O)N[C@H](CCC(=O)O)C(=O)N[C@@H](C(=O)N[C@@H](C(=O)N[C@@H](C(=O)N[C@H](CCCCN)C(=O)N[C@H](Cc1c[nH]c2ccccc12)C(=O)N[C@@H](C(=O)N[C@H](C)C(=O)N[C@H](C)C(=O)N[C@H](CCCCN)C(=O)O)[C@H](C)O)C(C)C)[C@H](C)CC)[C@H](C)O)[C@H](C)CC)C(C)C)[C@H](C)CC)[C@H](C)O)[C@H](C)CC)[C@H](C)O)[C@H](C)CC [DpPorA] (H-[dM][dI][dD][dQ][dI][dT][dE][dI][dF]G[dQ][dL]G[dT][dF][dL]GG[dF]G[dN][dI][dF][dK]G[dL][dK][dD][dV][dI][dE][dT][dI][dV][dK][dW][dT][dA][dA][dK]-OH; N-terminus and C-terminus assumed) | 2.80 ± 0.2 | 2.8 ± 0.2 | 73.0 ± 14.1 | 88.9±7.8 | 67.9± 10.4 |  |  |  |  | 2.8 ± 0.2 | 90 | 72.70±14.61 | 95.13±3.54 | 70.38±4.93

From paper PMC12491518, “Fabrication of cytotoxic mirror image nanopores” (Nature Communications, 2025)
